What was measured:
PCSK9 [1] = target: T1, PCSK9 (Homo sapiens, UniProt Q8NBP7); experiment: Differential scanning calorimetry (DSC) assay, direct binding / thermal stabilization of PCSK9; settings: Tm(with compound)−Tm(no compound); 2 μM PCSK9, 300 μM test compound
Method: Differential scanning calorimetry (DSC) was used as a biophysical method to confirm direct binding to PCSK9. A solution containing 2 μM PCSK9 with or without 300 μM test compound in 25 mM HEPES (pH 7.5)/150 mM NaCl/1 mM CaCl2/3.75% DMSO was transferred to the sample cell of the DSC instrument, while buffer alone was placed in the reference cell. Both cells were heated at a constant rate (200° C./hr) from 20-80° C. while recording the excess heat capacity of the sample cell relative to the reference cell. Each thermogram was analyzed to provide the melting temperature (Tm) of the protein.
The higher the temperature shift generally, the higher the affinity.

PCSK9 [2] = target: T1, PCSK9; experiment: Fluorescence polarization competition binding assay (probe: compound of Example 57); settings: 2 μM PCSK9, 50 nM compound of Example 57 as probe, overnight incubation; read-out: FP IC
Method: Relative compound affinities were determined using a competition binding assay with a fluorescence polarization format. Solution (49 μL) containing 2 μM PCSK9 and 50 nM compound of Example 57 in 20 mM HEPES (pH 7.5)/150 mM NaCl/1 mM CaCl2/0.005% P-20 was dispensed to wells of a 384-well black non-binding microplate before the addition of 1 μL of test compound or DMSO. After mixing, the plate was centrifuged and sealed for overnight incubation in the dark. The anisotropy signal was read using a fluorescence polarization protocol on a Perkin-Elmer Envision plate reader. The % inhibition was determined relative to the window defined by the DMSO control wells and wells containing 50 nM probe in the absence of PCSK9.

T1 sequence (Q8NBP7 153-692): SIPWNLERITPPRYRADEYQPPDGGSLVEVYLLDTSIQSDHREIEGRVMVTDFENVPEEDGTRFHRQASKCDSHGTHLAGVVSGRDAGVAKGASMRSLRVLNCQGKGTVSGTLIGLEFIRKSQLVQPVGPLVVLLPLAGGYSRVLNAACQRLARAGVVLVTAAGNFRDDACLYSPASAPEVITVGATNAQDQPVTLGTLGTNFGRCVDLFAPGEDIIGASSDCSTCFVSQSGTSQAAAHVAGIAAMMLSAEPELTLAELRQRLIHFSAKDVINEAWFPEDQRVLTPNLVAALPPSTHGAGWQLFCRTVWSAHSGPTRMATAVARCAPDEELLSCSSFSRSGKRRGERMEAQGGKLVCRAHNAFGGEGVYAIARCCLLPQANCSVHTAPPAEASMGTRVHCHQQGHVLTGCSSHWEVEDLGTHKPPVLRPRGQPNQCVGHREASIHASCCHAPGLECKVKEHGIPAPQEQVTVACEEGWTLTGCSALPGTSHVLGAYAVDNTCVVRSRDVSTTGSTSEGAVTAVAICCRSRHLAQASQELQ

| Compound | ΔTm at 300 µM (PCSK9 [1]) [°C] | IC50 (PCSK9 [2]) [nM] | DSC ΔTm (PCSK9 [1]) [°C] |
| --- | --- | --- | --- |
| C[C@]1(CC(=O)Nc2cccnn2)NCCc2cc(OCC3CCCCO3)c(Oc3ccc(-c4ccc(C(=O)O)cc4)c(F)c3)cc21 (stereo partly drawn) [Example 91, 2′-fluoro-4′-(((1R)-1-methyl-1-(2-oxo-2-(pyridazin-3-ylamino)ethyl)-6-((tetrahydro-2H-pyran-2-yl)methoxy)-1,2,3,4-tetrahydroisoquinolin-7-yl)oxy)-[1,1′-biphenyl]-4-carboxylic acid] | 7.19 | 860 |  |
| C[C@]1(CC(=O)Nc2nccs2)NCCc2cc(OCCn3cc(C4(C(=O)O)CC4)nn3)c(Oc3ccc(C(=O)O)c(F)c3)cc21 [Example 48, (R)-4-((6-(2-(4-(1-carboxycyclopropyl)-1H-1,2,3-triazol-1-yl)ethoxy)-1-methyl-1-(2-oxo-2-(thiazol-2-ylamino)ethyl)-1,2,3,4-tetrahydroisoquinolin-7-yl)oxy)-2-fluorobenzoic acid] | 6.02 | 678 |  |
| COc1cc2c(cc1Oc1ccc(-c3ccc(C(=O)O)cc3)c(F)c1)[C@@](C)(CC(=O)Nc1nccs1)NCC2 [Example 22, (R)-2′-fluoro-4′-((6-methoxy-1-methyl-1-(2-oxo-2-(thiazol-2-ylamino)ethyl)-1,2,3,4-tetrahydroisoquinolin-7-yl)oxy)-[1,1′-biphenyl]-4-carboxylic acid] | 7.52 | 211 |  |
| C[C@]1(CC(=O)Nc2nccs2)NCCc2cc(OCCn3cc(C(O)CN)nn3)c(Oc3ccc(C(=O)O)c(F)c3)cc21 (stereo partly drawn) [Example 55, 4-(((1R)-6-(2-(4-(2-amino-1-hydroxyethyl)-1H-1,2,3-triazol-1-yl)ethoxy)-1-methyl-1-(2-oxo-2-(thiazol-2-ylamino)ethyl)-1,2,3,4-tetrahydroisoquinolin-7-yl)oxy)-2-fluorobenzoic acid] | 5.82 | 878 |  |
| COC(=O)c1cc(-c2ccc(Oc3cc4c(cc3OC)CCN[C@]4(C)CC(=O)Nc3nccs3)cn2)c[nH]1 [Example 17, methyl (R)-4-(5-((6-methoxy-1-methyl-1-(2-oxo-2-(thiazol-2-ylamino)ethyl)-1,2,3,4-tetrahydroisoquinolin-7-yl)oxy)pyridin-2-yl)-1H-pyrrole-2-carboxylate] | 2.62 | 11.5 |  |
| Cc1ccc(-c2cn(CCOc3cc4c(cc3Oc3ccc(C(=O)O)c(F)c3)[C@@](C)(CC(=O)Nc3nccs3)NCC4)nn2)cn1 [Example 45, (R)-2-fluoro-4-((1-methyl-6-(2-(4-(6-methylpyridin-3-yl)-1H-1,2,3-triazol-1-yl)ethoxy)-1-(2-oxo-2-(thiazol-2-ylamino)ethyl)-1,2,3,4-tetrahydroisoquinolin-7-yl)oxy)benzoic acid] | 6.96 | 530 |  |
| C[C@]1(CC(=O)Nc2nccs2)NCCc2cc(OCCn3cc(CN4CCNC4=O)nn3)c(Oc3ccc(C(=O)O)c(F)c3)cc21 [Example 42, (R)-2-fluoro-4-((1-methyl-1-(2-oxo-2-(thiazol-2-ylamino)ethyl)-6-(2-(4-((2-oxoimidazolidin-1-yl)methyl)-1H-1,2,3-triazol-1-yl)ethoxy)-1,2,3,4-tetrahydroisoquinolin-7-yl)oxy)benzoic acid] | 5.97 | 389 |  |
| COc1cc2c(cc1Oc1cncc(F)c1)[C@@](C)(CC(=O)Nc1nccs1)NCC2 [Example 8, (R)-2-(7-((5-fluoropyridin-3-yl)oxy)-6-methoxy-1-methyl-1,2,3,4-tetrahydroisoquinolin-1-yl)-N-(thiazol-2-yl)acetamide] | 5.44 | 753 |  |
| Cc1ccc(C2C(C(=O)O)c3ccccc3C(=O)N2c2cccc(-c3cn(CCOc4cc5c(cc4Oc4ccc(C(=O)O)c(F)c4)[C@@](C)(CC(=O)Nc4nccs4)NCC5)nn3)c2)cc1 (stereo partly drawn) [Example 54, 2-(3-(1-(2-(((R)-7-(4-carboxy-3-fluorophenoxy)-1-methyl-1-(2-oxo-2-(thiazol-2-ylamino)ethyl)-1,2,3,4-tetrahydroisoquinolin-6-yl)oxy)ethyl)-1H-1,2,3-triazol-4-yl)phenyl)-1-oxo-3-(p-tolyl)-1,2,3,4-tetrahydroisoquinoline-4-carboxylic acid] |  | 837 | 5.98 |
| C[C@]1(CC(=O)Nc2nccs2)NCCc2cc(OCC3CCCCO3)c(Oc3ccc(C(=O)O)c(F)c3)cc21 (stereo partly drawn) [Example 62, 2-fluoro-4-(((1R)-1-methyl-1-(2-oxo-2-(thiazol-2-ylamino)ethyl)-6-((tetrahydro-2H-pyran-2-yl)methoxy)-1,2,3,4-tetrahydroisoquinolin-7-yl)oxy)benzoic acid] | 6.03 | 529 |  |
| Cn1nccc1NC(=O)c1ccc(Oc2cc3c(cc2OCC2CCCCO2)CCN[C@]3(C)CC(=O)Nc2nccs2)cc1F (single isomer, unassigned) [Example 77, 2-fluoro-4-(((R)-1-methyl-1-(2-oxo-2-(thiazol-2-ylamino)ethyl)-6-(((R or S)-tetrahydro-2H-pyran-2-yl)methoxy)-1,2,3,4-tetrahydroisoquinolin-7-yl)oxy)-N-(1-methyl-1H-pyrazol-5-yl)benzamide] | 6.67 | 591 |  |
| COc1cc2c(cc1Oc1ccc(-c3ccc(CCC(=O)O)cc3)c(F)c1)[C@@](C)(CC(=O)Nc1nccs1)NCC2 [Example 32, (R)-3-(2′-fluoro-4′-((6-methoxy-1-methyl-1-(2-oxo-2-(thiazol-2-ylamino)ethyl)-1,2,3,4-tetrahydroisoquinolin-7-yl)oxy)-[1,1′-biphenyl]-4-yl)propanoic acid] | 6.18 | 532 |  |
| C[C@]1(CC(=O)Nc2nccs2)NCCc2cc(OCC3CCCCO3)c(Oc3ccc(C(=O)Nc4n[nH]c5ncccc45)c(F)c3)cc21 (stereo partly drawn) [Example 78, 2-fluoro-4-(((1R)-1-methyl-1-(2-oxo-2-(thiazol-2-ylamino)ethyl)-6-((tetrahydro-2H-pyran-2-yl)methoxy)-1,2,3,4-tetrahydroisoquinolin-7-yl)oxy)-N-(1H-pyrazolo[3,4-b]pyridin-3-yl)benzamide] |  | 604 | 6.67 |
| COCCOc1cc2c(cc1Oc1ccc(C(=O)O)cc1)[C@@](C)(CC(=O)Nc1nccs1)NCC2 [Example 69, (R)-4-((6-(2-methoxyethoxy)-1-methyl-1-(2-oxo-2-(thiazol-2-ylamino)ethyl)-1,2,3,4-tetrahydroisoquinolin-7-yl)oxy)benzoic acid] | 7.65 | 541 |  |
| COc1cc2c(cc1Oc1cc(F)c(C(=O)O)c(F)c1)[C@@](C)(CC(=O)Nc1nccs1)NCC2 [Example 5, (R)-2,6-difluoro-4-((6-methoxy-1-methyl-1-(2-oxo-2-(thiazol-2-ylamino)ethyl)-1,2,3,4-tetrahydroisoquinolin-7-yl)oxy)benzoic acid] | 6.99 | 561 |  |
| C[C@]1(CC(=O)Nc2nccs2)NCCc2cc(OCc3ncccn3)c(Oc3ccc(-c4ccc(C(=O)O)cc4)c(F)c3)cc21 [Example 19, (R)-2′-fluoro-4′-((1-methyl-1-(2-oxo-2-(thiazol-2-ylamino)ethyl)-6-(pyrimidin-2-ylmethoxy)-1,2,3,4-tetrahydroisoquinolin-7-yl)oxy)-[1,1′-biphenyl]-4-carboxylic acid] | 9.05 | 162 |  |
| C[C@]1(CC(=O)Nc2nccs2)NCCc2cc(OCC3CCCO3)c(Oc3ccc(-c4ccc(C(=O)O)cc4)c(F)c3)cc21 (stereo partly drawn) [Example 13] | 8.4 | 99.3 |  |
| COc1cc2c(cc1Oc1ccc(-c3ccc(C(=O)O)cc3F)c(F)c1)[C@@](C)(CC(=O)Nc1nccs1)NCC2 [Example 25, (R)-2,2′-difluoro-4′-((6-methoxy-1-methyl-1-(2-oxo-2-(thiazol-2-ylamino)ethyl)-1,2,3,4-tetrahydroisoquinolin-7-yl)oxy)-[1,1′-biphenyl]-4-carboxylic acid] | 6.6 | 302 |  |
| Cc1nnc(-c2cn(CCOc3cc4c(cc3Oc3ccc(C(=O)O)c(F)c3)[C@@](C)(CC(=O)Nc3nccs3)NCC4)nn2)o1 [Example 39, (R)-2-fluoro-4-((1-methyl-6-(2-(4-(5-methyl-1,3,4-oxadiazol-2-yl)-1H-1,2,3-triazol-1-yl)ethoxy)-1-(2-oxo-2-(thiazol-2-ylamino)ethyl)-1,2,3,4-tetrahydroisoquinolin-7-yl)oxy)benzoic acid] | 5.98 | 292 |  |
| COc1cc2c(cc1Oc1ccc(-c3ccc(C(=O)O)c(F)c3)c(F)c1)[C@@](C)(CC(=O)Nc1nccs1)NCC2 [Example 27, (R)-2′,3-difluoro-4′-((6-methoxy-1-methyl-1-(2-oxo-2-(thiazol-2-ylamino)ethyl)-1,2,3,4-tetrahydroisoquinolin-7-yl)oxy)-[1,1′-biphenyl]-4-carboxylic acid] | 7.11 | 386 |  |
| C[C@]1(CC(=O)Nc2nccs2)NCCc2cc(OCc3ncccc3F)c(Oc3cccc(F)c3)cc21 [Example 84, (R)-2-(7-(3-fluorophenoxy)-6-((3-fluoropyridin-2-yl)methoxy)-1-methyl-1,2,3,4-tetrahydroisoquinolin-1-yl)-N-(thiazol-2-yl)acetamide] | 6.32 | 943 |  |

— US11008313B2, “Substituted 1-methyl-1,2,3,4-tetrahydroisoquinoline molecules as PCSK9 allosteric binders” (Merck Sharp & Dohme Corp., priority 2016, dated 2021)
